What all share (format): functional, cell-based
In one assay the test system is A549. The assay is described as follows: In vitro cytotoxicity against A549 (human lung cancer).
A further assay has as its system A2780. The assay is described as follows: In vitro cytotoxicity against A2780 (human ovarian cancer).
Another assay concerns KB VCR R. As to the kind of experiment: In vitro cytotoxicity against KB/VCR (Vincristine-resistant cancer cell line). Conditions: Homo sapiens.
The next assay concerns KB. As to the kind of experiment: In vitro cytotoxicity against KB (human epidermoid carcinoma of the nasopharynx).
A further assay relates to HCT-8. As to the kind of experiment: In vitro cytotoxicity against HCT-8 (human colon cancer).
In the next assay the test system is Bel-7402. As to the kind of experiment: In vitro cytotoxicity against Bel7402 (human liver cancer). Particulars: Bel-7402, Liver.

As usually defined, the IC50 is the concentration that gives 50% inhibition. A lower IC50 goes with greater potency.

Turning to `CC[C@@]1(O)C(=O)OCc2c1cc1n(c2=O)Cc2c-1nc1ccccc1c2COC(=O)COc1ccc(F)cc1`, the IC50 turned out to be 0.057 µM in the assay on A549; 0.008 µM in the assay on A2780; 0.049 µM with KB VCR R; 0.007 µM in the assay on KB; 0.008 µM in the assay on HCT-8; 0.009 µM in the assay on Bel-7402.
As for `CC[C@@]1(OC(=O)COc2ccc(F)cc2)C(=O)OCc2c1cc1n(c2=O)Cc2c-1nc1ccccc1c2COC(=O)COc1ccc(F)cc1`, the IC50 in the assay with A549 was 0.293 µM; in the assay with A2780 it was 0.058 µM; in the assay with KB VCR R it was over 1 µM; in the assay on KB it was 0.072 µM; in the assay on HCT-8, 0.052 µM; in the assay with Bel-7402, 0.026 µM.
Consider `CC[C@@]1(OC(=O)COc2ccc(C#N)c(F)c2)C(=O)OCc2c1cc1n(c2=O)Cc2c-1nc1ccccc1c2COC(=O)COc1ccc(C#N)c(F)c1`, for which the IC50 in the assay on A549 stood at 0.055 µM; with A2780 it was 0.01 µM; in the assay on KB VCR R, 0.053 µM; in the assay with KB, 0.009 µM; in the assay on HCT-8, 0.048 µM; in the assay with Bel-7402 it was 0.033 µM.
As for `CC[C@@]1(OC(=O)COc2ccc(OC)cc2)C(=O)OCc2c1cc1n(c2=O)Cc2c-1nc1ccccc1c2COC(=O)COc1ccc(OC)cc1`, the IC50 with A549 stood at 0.348 µM; with A2780 it was 0.071 µM; in the assay on KB VCR R it was 0.267 µM; in the assay with KB, 0.31 µM; with HCT-8 it was 0.076 µM; with Bel-7402 it was 0.084 µM.
On to `CC[C@@]1(OC(=O)COc2ccc(F)cc2)C(=O)OCc2c1cc1n(c2=O)Cc2cc3cc(OC(=O)COc4ccc(F)cc4)ccc3nc2-1`, for which the IC50 came to 0.401 µM in the assay on A549; 0.015 µM with A2780; 0.295 µM in the assay with KB VCR R; 0.055 µM in the assay with KB; 0.082 µM in the assay on HCT-8; 0.095 µM in the assay with Bel-7402.
In the case of `CC[C@@]1(OC(=O)COc2ccc(OC)cc2)C(=O)OCc2c1cc1n(c2=O)Cc2cc3cc(OC(=O)COc4ccc(OC)cc4)ccc3nc2-1`, the IC50 with A549 came out at 0.718 µM; in the assay with A2780 it was 0.088 µM; with KB VCR R, 0.46 µM; in the assay on KB it was 0.069 µM; in the assay on HCT-8, 0.097 µM; with Bel-7402 it was 0.2 µM.
Regarding `CC[C@@]1(O)C(=O)OCc2c1cc1n(c2=O)Cc2c-1nc1ccccc1c2COC(=O)Cc1cc(OC)c(OC)c(OC)c1`, the IC50 was determined as 0.16 µM in the assay on A549; 0.061 µM with A2780; 0.34 µM with KB VCR R; 0.036 µM in the assay on KB; 0.055 µM in the assay on HCT-8; 0.072 µM with Bel-7402.
With `CC[C@@]1(O)C(=O)OCc2c1cc1n(c2=O)Cc2cc3cc(OC(=O)COc4ccc(F)cc4)ccc3nc2-1`, the IC50 in the assay on A549 came to 0.08 µM; with A2780, 0.054 µM; with KB VCR R, 0.244 µM; in the assay with KB, 0.053 µM; with HCT-8, 0.062 µM; in the assay with Bel-7402, 0.095 µM.
As for `CC[C@@]1(OC(=O)Cc2cc(OC)c(OC)c(OC)c2)C(=O)OCc2c1cc1n(c2=O)Cc2c-1nc1ccccc1c2COC(=O)Cc1cc(OC)c(OC)c(OC)c1`, the IC50 in the assay on A549 is 0.098 µM; in the assay on A2780, 0.068 µM; in the assay with KB VCR R, 0.947 µM; with KB, 0.078 µM; in the assay with HCT-8 it was 0.076 µM; in the assay on Bel-7402, 0.082 µM.
Consider `CC[C@@]1(O)C(=O)OCc2c1cc1n(c2=O)Cc2c-1nc1ccccc1c2COC(=O)COc1ccc(OC)cc1`, for which the IC50 was determined as 0.069 µM in the assay with A549; 0.009 µM with A2780; 0.051 µM in the assay with KB VCR R; 0.008 µM in the assay on KB; 0.009 µM in the assay on HCT-8; 0.008 µM with Bel-7402.
In the case of `CC[C@@]1(O)C(=O)OCc2c1cc1n(c2=O)Cc2cc3cc(OC(=O)COc4ccc(OC)cc4)ccc3nc2-1`, the IC50 came to 0.19 µM in the assay on A549; 0.065 µM in the assay with A2780; 0.275 µM with KB VCR R; 0.047 µM in the assay with KB; 0.061 µM with HCT-8; 0.074 µM in the assay with Bel-7402.
As for `CC[C@@]1(O)C(=O)OCc2c1cc1n(c2=O)Cc2c-1nc1ccccc1c2COC(=O)COc1ccc(C#N)c(F)c1`, the IC50 with A549 is 0.008 µM; in the assay on A2780, under 0.001 µM; with KB VCR R, 0.437 µM; in the assay with KB, under 0.001 µM; with HCT-8 it was under 0.001 µM; in the assay with Bel-7402 it was under 0.001 µM.
For the molecule `CC[C@@]1(O)C(=O)OCc2c1cc1n(c2=O)Cc2cc3ccccc3nc2-1` [CAMPTOTHECIN], the IC50 in the assay on A549 came out at 0.008 µM; in the assay with A2780, 0.007 µM; in the assay with KB VCR R, 0.009 µM; in the assay on KB, 0.009 µM; in the assay with HCT-8, 0.007 µM; in the assay with Bel-7402, 0.007 µM.
As to `CC[C@@]1(O)C(=O)OCc2c1cc1n(c2=O)Cc2cc3c(CN(C)C)c(O)ccc3nc2-1` [TOPOTECAN], the concentration for half-maximal inhibition (IC50) in the assay on A549 is 0.087 µM; in the assay with A2780, 0.058 µM; in the assay on KB VCR R, 0.339 µM; with HCT-8 it was 0.074 µM; in the assay on Bel-7402, 0.078 µM.

(Values after ChEMBL document CHEMBL1136321, “Regioselective synthesis and cytotoxicities of camptothecin derivatives modified at the 7-, 10- and 20-positions” (Bioorg Med Chem Lett, 2003).)
